Source: paper PMC5573416, “Inhibiting mycobacterial tryptophan synthase by targeting the inter-subunit interface” (Scientific Reports, 2017)

Tests used:
[1] = molecular target: T1, Mtb tryptophan synthase (TrpA and TrpB-F188L) (Mycobacterium tuberculosis, UniProt P9WFX9+P9WFY1, F199L); type: biochemical
[2] = molecular target: T1, Mtb tryptophan synthase (TrpA and TrpB-F188L); type: biochemical; remark: listed apart in the source

## CNS(=O)(=O)c1ccc2c(c1)CCN2C(=O)c1ccccc1F [Compound 2]
[1]
  L-tryptophan synthesis in presence of inhibitor (TLC): relatively the same amount of tryptophan

## CNS(=O)(=O)c1ccc2c(c1)CCN2C(=O)c1ccc(C)s1 [Compound 3]
[2]
  L-tryptophan produced in presence of inhibitor (GF-HPLC): L-tryptophan was produced
